Experimental data from patent US7455996B2, “Soybean raffinose synthase and a method for producing raffinose” (priority 1996, dated 2008).

B1: raffinose synthase: raffinose synthase purified from cucumber leaf vein tissues, amino acid sequence SEQ ID NO: 5 (protein, listed as Cucumis sativus)
chain: MAPSFKNGGSNVVSFDGLNDMSSPFAIDGSDFTVNGHSFLSDVPENIVASPSPYTSIDKSPVSVGCFVGFDASEPDSRHVVSIGKLKDIRFMSIFRFKVWWTTHWVGRNGGDLESETQIVILEKSDSGRPYVFLLPIVEGPFRTSIQPGDDDFVDVCVESGSSKVVDASFRSMLYLHAGDDPFALVKEAMKIVRTHLGTFRLLEEKTPPGIVDKFGWCTWDAFYLTVHPQGVIEGVRHLVDGGCPPGLVLIDDGWQSIGHDSDPITKEGMNQTVAGEQMPCRLLKFQENYKFRDYVNPKATGPRAGQKGMKAFIDELKGEFKTVEHVYVWHALCGYWGGLRPQVPGLPEARVIQPVLSPGLQMTMEDLAVDKIVLHKVGLVPPEKAEEMYEGLHAHLEKVGIDGVKIDVIHLLEMLCEDYGGRVDLAKAYYKAMTKSINKHFKGNGVIASMEHCNDFMFLGTEAISLGRVGDDFWCTDPSGDPNGTFWLQGCHMVHCANDSLWMGNFIHPDWDMFQSTHPCAAFHAASRAISGGPIYVSDSVGKHNFDLLKKLVLPDGSILRSEYYALPTRDCLFEDPLHNGETMLKIWNLNKFTGVIGAFNCQGGGWCRETRRNQCFSQYSKRVTSKTNPKDIEWHSGENPISIEGVKTFALYLYQAKKLILSKPSQDLDIALDPFEFELITVSPVTKLIQTSLHFAPIGLVNMLNTSGAIQSVDYDDDLSSVEIGVKGCGEMRVFASKKPRACRIDGEDVGFKYDQDQMVVVQVPWPIDSSSGGISVIEYLF

Tests used:
raffinose synthase [1] = assay: raffinose synthase activity with enzyme inhibitors or metal ions added; type: biochemical, cucumber; settings: final concentration of 1 mM; for Remaining activity (%): with respect to activity when neither inhibitor nor metal ion was added
Experimental: (§1) The activity of the raffinose synthase was measured by quantitatively determining raffinose produced by the raffinose synthesis reaction by using HPLC (high-performance liquid chromatography). HPLC was performed by using Sugar Analysis System DX500 (CarboPac PA1column, pulsed amperometry detector (produced by DIONEX)).
(§2) For the raffinose synthesis reaction, to a reaction solution prepared to have a composition having the following final concentrations, 10 to 50 μl of a raffinose synthase solution was added to give a volume of 100 μl followed by performing the reaction at 32° C. for 60 minutes.
(§3) After performing the reaction as described above, the reaction was stopped by adding to the reaction solution, ethanol in a volume four times the volume of the reaction solution and heating the solution at 95° C. for 30 seconds. The obtained solution was centrifuged to obtain a supernatant and the supernatant was then dried up under a reduced pressure. After that, an obtained residue was dissolved in distilled water. Raffinose in the reaction product was quantitatively determined by using the sugar analysis system to estimate the raffinose synthase activity.
Various enzyme inhibitors or metal ions were added to the reaction solution of the purified raffinose synthase to give a final concentration of 1 mM respectively, and the raffinose synthase activity was measured in the same manner as described above.

raffinose synthase [2] = assay: inhibition of raffinose synthase activity by myo-inositol; type: biochemical, cucumber; settings: myo-inositol added at various concentrations (FIG. 5)
Experimental: as §1, §2, §3
Investigation was made for inhibition by myo-inositol as the reaction product of the raffinose synthesis reaction. To the reaction solution, myo-inositol was added at various concentrations, and the raffinose synthase activity was measured. […]

[3] = optimum reaction temperature of raffinose synthase; type: biochemical, cucumber; settings: measured at 28 to 52° C.
Experimental: as §1, §2, §3
The raffinose synthase activity was measured under various temperature conditions (28° C., 32° C., 36° C., 40° C., 44° C., 48° C., and 52° C.) in accordance with the method for measuring the raffinose synthase activity described above. […]

[4] = raffinose synthase activity of purification fractions (HPLC determination of raffinose); type: biochemical, cucumber; settings: purified active fraction after hydroxyapatite rechromatography
Experimental: as §1, §2, §3
The amount of protein contained in the active fraction was about 200 μg. The total activity was 5700 nmol/hour, and the specific activity per protein was about 28 μmol/hour/mg. […]

[5] = stable temperature of raffinose synthase; type: physicochemical, cucumber; settings: fraction from anion exchange chromatography (2); 60 minutes at 28° C. to 40° C., pH 7
Experimental: The raffinose synthase fraction obtained by the anion exchange chromatography (2) described above was incubated in 20 mM Tris-HCl buffer (pH 7, containing 0.5 mM DTT) for 60 minutes at 28° C., 32° C., 37° C., or 40° C., and then the raffinose synthase activity was measured.

[6] = stable pH of raffinose synthase; type: physicochemical, cucumber; settings: fraction from anion exchange chromatography (2); incubated 4 hours at 4° C.
Experimental: The raffinose synthase fraction obtained by the anion exchange chromatography (2) described above was incubated for 4 hours at 4° C. in 50 mM Bis-Tris-HCl buffer (pH 5 to 8.0, containing 0.5 mM DTT) or 20 mM Tris-HCl buffer (pH 7 to 8.0, containing 0.5 mM DTT), and then the raffinose synthase activity was measured. […] The raffinose synthase activity was confirmed after the incubation under any of the incubation conditions. Especially, the enzyme was stable in a range of pH 5 to 7.5.

[7] = optimum reaction pH of raffinose synthase; type: biochemical, cucumber; settings: pH 4 to 11, various buffers
Experimental: as §1, §2, §3
The raffinose synthase activity was measured under various pH conditions (pH 4 to 11) in accordance with the method for measuring the raffinose synthase activity described above. […]

Molecule	inhibiting effect on the enzyme activity (raffinose synthase [1])	Remaining activity (%) (raffinose synthase [1])	other results
[Cl][Ni][Cl] [NiCl2]	exhibited the inhibiting effect	68%	–
[Cl-].[Cl-].[Zn+2] [ZnCl2]	exhibited the inhibiting effect	42%	–
O[C@H]1[C@H](O)[C@@H](O)[C@H](O)[C@@H](O)[C@H]1O [myo-inositol]	–	–	inhibition of the enzyme activity by myo-inositol (raffinose synthase [2]): inhibited
[Cl][Mn][Cl] [MnCl2]	exhibited the inhibiting effect	32%	–
[Cl][Cu][Cl] [CuCl2]	scarcely observed	101%	–
[Ca+2].[Cl-].[Cl-] [CaCl2]	scarcely observed	115%	–
CCN1C(=O)C=CC1=O [N-ethylmaleimide]	remarkably inhibited	40%	–
NC(=O)CI [Iodoacetoamide, Iodoacetamide]	remarkably inhibited	0%	–
[Cl-].[Cl-].[Mg+2] [MgCl2]	scarcely observed	96%	–
B1	–	–	optimum reaction temperature [3]: 35 to 40 °C; temperature range in which activity was exhibited [3]: 25 to 42 °C; specific activity per protein [4]: about 28 μmol/hour/mg; activity after incubation relative to non-incubated control [5]: 80% to 100; stable pH range [6]: 5 to 7.5 pH; optimum reaction pH [7]: 6 to 8 pH; pH range in which activity was exhibited [7]: 5 to 10 pH
